# Experimental data as given in ChEMBL document CHEMBL1201862, “PubChem BioAssay data set” (2004).
# Values joined by “and” are separate entries in the source; they are usually repeats but may differ in a detail not shown here. Equal entries are not always repeated.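 Where inhibition never reached the appropriate level, the endpoint shown equals the highest concentration tested. Otherwise, values were interpolated linearly from a five-concentration, 48-hour dose response in 96-well plates. The concentration for 50% growth inhibition is given as GI50.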 Active and inactive are the calls of the source. Rule as the data show it: active = GI50 up to about 1.1 µM and inactive = higher.
# Key:
# Assay in all cases: inhibition of tumour cell growth, NCI panel, 48 h
# MOLT-4 = test system: MOLT-4
# PC-3 = test system: PC-3
# SF-268 = test system: SF-268
# Malme-3M = test system: Malme-3M
# CCRF-CEM = test system: CCRF-CEM
# NCI-H23 = test system: NCI-H23
# TK-10 = test system: TK-10
# SNB-19 = test system: SNB-19
# HOP-62 = test system: HOP-62
# MDA-MB-435 = test system: MDA-MB-435
# HCT-15 = test system: HCT-15
# Hs-578T = test system: Hs-578T
# ACHN = test system: ACHN
# MCF7 = test system: MCF7
# HL-60 = test system: HL-60
# SW-620 = test system: SW-620
# A549 = test system: A549
# HCT-116 = test system: HCT-116
# IGROV-1 = test system: IGROV-1
# NCI-H460 = test system: NCI-H460
# NCI/ADR-RES = test system: NCI/ADR-RES
# T47D = test system: T47D
# SK-OV-3 = test system: SK-OV-3
# SN12C = test system: SN12C
# KM12 = test system: KM12
# OVCAR-3 = test system: OVCAR-3
# UACC-62 = test system: UACC-62
# MDA-N = test system: MDA-N
# HOP-92 = test system: HOP-92
# DU-145 = test system: DU-145
# K562 = test system: K562
# SK-MEL-5 = test system: SK-MEL-5
# SF-539 = test system: SF-539
# A498 = test system: A498
# UACC-257 = test system: UACC-257
# LOX IMVI = test system: LOX IMVI
# SR = test system: SR
# HCC 2998 = test system: HCC 2998
# OVCAR-4 = test system: OVCAR-4
# COLO 205 = test system: COLO 205
# RPMI-8226 = test system: RPMI-8226
# SF-295 = test system: SF-295
# HT-29 = test system: HT-29
# OVCAR-8 = test system: OVCAR-8
# UO-31 = test system: UO-31
# SK-MEL-28 = test system: SK-MEL-28
# NCI-H522 = test system: NCI-H522
# M14 = test system: M14
# NCI-H226 = test system: NCI-H226
# SNB-75 = test system: SNB-75
# SK-MEL-2 = test system: SK-MEL-2
# CAKI-1 = test system: CAKI-1
# OVCAR-5 = test system: OVCAR-5
# MDA-MB-231 = test system: MDA-MB-231
# U-251 = test system: U-251
compound,measurement,setting,value
CN1C2C=CC(=O)C1C(C#N)C2 (configuration not stated),GI50,MOLT-4,30.1 µM (inactive) and 29.5 µM (inactive)
same,GI50,PC-3,> 100 µM (inactive)
same,GI50,SF-268,95.9 µM (inactive) and 75.5 µM (inactive)
same,GI50,Malme-3M,24 µM (inactive) and 40 µM (inactive)
same,GI50,CCRF-CEM,23.2 µM (inactive) and 19 µM (inactive)
same,GI50,NCI-H23,32.4 µM (inactive) and 22.3 µM (inactive)
same,GI50,TK-10,> 100 µM (inactive) and 66.4 µM (inactive)
same,GI50,SNB-19,77.8 µM (inactive)
same,GI50,HOP-62,94.4 µM (inactive)
same,GI50,MDA-MB-435,29.5 µM (inactive) and 42.9 µM (inactive)
same,GI50,HCT-15,30.5 µM and 24.1 µM
same,GI50,Hs-578T,> 100 µM (inactive) and 85.3 µM (inactive)
same,GI50,ACHN,72.3 µM (inactive) and 52.5 µM (inactive)
same,GI50,MCF7,31.8 µM (inactive) and 35.8 µM (inactive)
same,GI50,HL-60,32.2 µM (inactive) and 18.6 µM (inactive)
same,GI50,SW-620,28.7 µM (inactive) and 51.8 µM (inactive)
same,GI50,A549,66.4 µM (inactive) and 34.5 µM (inactive)
same,GI50,HCT-116,33.5 µM (inactive) and 18.9 µM (inactive)
same,GI50,IGROV-1,56 µM (inactive)
same,GI50,NCI-H460,37.2 µM (inactive) and 31.7 µM (inactive)
same,GI50,NCI/ADR-RES,30.5 µM (inactive) and 28.2 µM (inactive)
same,GI50,T47D,21.1 µM (inactive) and 39.2 µM (inactive)
same,GI50,SK-OV-3,> 100 µM (inactive) and 83.8 µM (inactive)
same,GI50,SN12C,59.7 µM (inactive) and 35.8 µM (inactive)
same,GI50,KM12,42.9 µM (inactive) and 38.5 µM (inactive)
same,GI50,OVCAR-3,62.1 µM (inactive) and 35.4 µM (inactive)
same,GI50,UACC-62,80.4 µM (inactive) and 76.4 µM (inactive)
same,GI50,MDA-N,29.1 µM (inactive) and 41.3 µM (inactive)
same,GI50,HOP-92,9.82 µM (inactive) and 16.4 µM (inactive)
same,GI50,DU-145,68.7 µM (inactive) and 40 µM (inactive)
same,GI50,K562,36.1 µM (inactive) and 19.3 µM (inactive)
same,GI50,SK-MEL-5,55.1 µM (inactive)
same,GI50,SF-539,28.4 µM (inactive) and 36.3 µM (inactive)
same,GI50,A498,49.5 µM (inactive) and 46.1 µM (inactive)
C=CCP(=O)(CC=C)C(Cl)Cl,GI50,MOLT-4,> 100 µM (inactive)
same,GI50,PC-3,> 100 µM (inactive)
same,GI50,UACC-257,> 100 µM (inactive)
same,GI50,LOX IMVI,> 100 µM (inactive)
same,GI50,SR,> 100 µM (inactive)
same,GI50,HCC 2998,> 100 µM (inactive)
same,GI50,OVCAR-4,> 100 µM (inactive)
same,GI50,COLO 205,> 100 µM (inactive)
same,GI50,CCRF-CEM,> 100 µM (inactive)
same,GI50,NCI-H23,> 100 µM (inactive)
same,GI50,RPMI-8226,> 100 µM (inactive)
same,GI50,SF-295,> 100 µM (inactive)
same,GI50,TK-10,> 100 µM (inactive)
same,GI50,SNB-19,> 100 µM (inactive)
same,GI50,HT-29,> 100 µM (inactive)
same,GI50,OVCAR-8,> 100 µM (inactive)
same,GI50,HOP-62,> 100 µM (inactive)
same,GI50,HCT-15,> 100 µM
same,GI50,Hs-578T,> 100 µM (inactive)
same,GI50,UO-31,> 100 µM (inactive)
same,GI50,ACHN,> 100 µM (inactive)
same,GI50,MCF7,> 100 µM (inactive)
same,GI50,HL-60,> 100 µM (inactive)
same,GI50,SW-620,> 100 µM (inactive)
same,GI50,A549,> 100 µM (inactive)
same,GI50,HCT-116,> 100 µM (inactive)
same,GI50,IGROV-1,> 100 µM (inactive)
same,GI50,SK-MEL-28,> 100 µM (inactive)
same,GI50,NCI-H460,> 100 µM (inactive)
same,GI50,NCI/ADR-RES,> 100 µM (inactive)
same,GI50,NCI-H522,> 100 µM (inactive)
same,GI50,T47D,> 100 µM (inactive)
same,GI50,SK-OV-3,> 100 µM (inactive)
same,GI50,SN12C,> 100 µM (inactive)
same,GI50,M14,> 100 µM (inactive)
same,GI50,NCI-H226,> 100 µM (inactive)
same,GI50,SNB-75,> 100 µM (inactive)
same,GI50,SK-MEL-2,> 100 µM (inactive)
same,GI50,OVCAR-3,> 100 µM (inactive)
same,GI50,CAKI-1,> 100 µM (inactive)
same,GI50,OVCAR-5,> 100 µM (inactive)
same,GI50,MDA-N,> 100 µM (inactive)
same,GI50,HOP-92,> 100 µM (inactive)
same,GI50,DU-145,> 100 µM (inactive)
same,GI50,K562,> 100 µM (inactive)
same,GI50,MDA-MB-231,> 100 µM (inactive)
same,GI50,SK-MEL-5,> 100 µM (inactive)
same,GI50,U-251,> 100 µM (inactive)
